Source: EPA's CvTdb concentration-time database (doi:10.1093/toxsci/kfy020)

Legend:
rat [1] = test: concentration in plasma after dosing; conditions: male
rat [2] = test: concentration in plasma after dosing; conditions: dosed: Chloridazon, 4.17 mg/kg, oral, male, Sprague-Dawley
rat [3] = test: concentration in plasma after dosing; conditions: dosed: Chloridazon, 4.17 mg/kg, oral, male, Sprague-Dawley; remark: listed apart in the source
rat [4] = test: concentration in plasma after dosing; conditions: dosed: Chloridazon, 0.80 mg/kg, iv, male, Sprague-Dawley
rat [5] = test: concentration in plasma after dosing; conditions: dosed: Chloridazon, 0.80 mg/kg, iv, male, Sprague-Dawley; remark: listed apart in the source
rat [6] = test: concentration in plasma after dosing; conditions: dosed: Diazinon-o-analog, 5.02 mg/kg, oral, male, Sprague-Dawley
rat [7] = test: concentration in plasma after dosing; conditions: dosed: Diazinon-o-analog, 1.02 mg/kg, iv, male, Sprague-Dawley
rat [8] = test: concentration in plasma after dosing; conditions: dosed: Diazinon-o-analog, 1.02 mg/kg, iv, male, Sprague-Dawley; remark: listed apart in the source
rat [9] = test: concentration in plasma after dosing; conditions: dosed: Diazinon-o-analog, 5.02 mg/kg, oral, male, Sprague-Dawley; remark: listed apart in the source
rat [10] = test: concentration in plasma after dosing; conditions: dosed: Flufenacet, 1.0 mg/kg, iv, male, Sprague-Dawley
rat [11] = test: concentration in plasma after dosing; conditions: dosed: Flufenacet, 5.2 mg/kg, oral, male, Sprague-Dawley
rat [12] = test: concentration in plasma after dosing; conditions: dosed: Flufenacet, 1.0 mg/kg, iv, male, Sprague-Dawley; remark: listed apart in the source
rat [13] = test: concentration in plasma after dosing; conditions: dosed: Flufenacet, 5.2 mg/kg, oral, male, Sprague-Dawley; remark: listed apart in the source
rat [14] = test: concentration in brain after dosing; conditions: dosed: Imipramine, 10.0000000000 mg/kg, iv, male, Wistar

COc1ccccc1Oc1c(NS(=O)(=O)c2ccc(C(C)(C)C)cc2)nc(-c2ncccn2)nc1OCCO [Bosentan]
concentration in plasma [ng/mL], rat [1], dosed: Bosentan, Wistar
Conditions | 0.5 h | 1 h | 2 h | 2 min | 3 h | 4 h | 6 h | 8 h | 10 min | 20 min
1.0000000000 mg/kg, iv | 168 | 128 | 78.9 | 1950 | 61.3 | 38.3 | 18.3 | 10.5 | 323 | 212
10.0000000000 mg/kg, oral | – | 622 | 608 | – | – | 360 | 157 | 60 | – | –

COC(=O)Nc1nc2ccccc2[nH]1 [Carbendazim]
rat [1], dosed: Carbendazim, 1000.0000000000 mg/kg, oral, Sprague-Dawley
Conditions | concentration in plasma [ng/mL]
0.25 h | 10000
0.5 h | 11600
1 h | 14700
2 h | 20200
4 h | 14100
8 h | 4590
20 h | 49.4

Nc1cnn(-c2ccccc2)c(=O)c1Cl [Chloridazon]
concentration in plasma [ng/mL]
Conditions | rat [2] | rat [3] | rat [4] | rat [5]
0.167 h | – | – | 477 | 228
0.25 h | 476 | 402 | – | –
0.5 h | 636 | 466 | 349 | 352
1 h | 858 | 863 | 106 | 102
2 h | 586 | 337 | 11.4 | 23.6
4 h | 158 | 64.9 | 1.03 | 1.66
5 min | – | – | 404 | 371
8 h | 3.03 | 48.8 | 1.72 | 0.333
24 h | 0.913 | 0.604 | 0.115 | 0.0228
48 h | 0.0563 | 0.0265 | – | 0.0394
72 h | 0.00435 | 0.0146 | 0.116 | –

rat [1], dosed: Chloridazon, Sprague-Dawley
Conditions | concentration in plasma [ng/mL]
0.167 h, 0.80 mg/kg, iv | 54.2
0.25 h, 4.17 mg/kg, oral | 382
0.5 h, 0.80 mg/kg, iv | 144
0.5 h, 4.17 mg/kg, oral | 616
1 h, 0.80 mg/kg, iv | 88
1 h, 4.17 mg/kg, oral | 863
2 h, 0.80 mg/kg, iv | 106
2 h, 4.17 mg/kg, oral | 371
4 h, 0.80 mg/kg, iv | 88.3
4 h, 4.17 mg/kg, oral | 202
5 min, 0.80 mg/kg, iv | 84.5
8 h, 0.80 mg/kg, iv | 0.556
8 h, 4.17 mg/kg, oral | 93.2
24 h, 0.80 mg/kg, iv | 0.0877
24 h, 4.17 mg/kg, oral | 0.329
48 h, 0.80 mg/kg, iv | 0.0282
48 h, 4.17 mg/kg, oral | 0.0714
72 h, 0.80 mg/kg, iv | 0.072

CCOP(=S)(OCC)Oc1nc(Cl)c(Cl)cc1Cl [Chlorpyrifos]
concentration in plasma [ng/mL], rat [1], dosed: Chlorpyrifos, oral, F344
Conditions | 1 h | 3 h | 5 min | 6 h | 12 h | 20 min
5.0000000000 mg/kg | 1.39 | 30 | – | 13.1 | 1.81 | –
10.0000000000 mg/kg | 5.05 | 109 | – | 18.7 | 1.76 | –
50.0000000000 mg/kg | 51 | 326 | 0.559 | 79.3 | 15.5 | 1.42
100.0000000000 mg/kg | 246 | 759 | 0.665 | 202 | 278 | 7.47

CCOP(=O)(OCC)Oc1cc(C)nc(C(C)C)n1 [Diazinon-o-analog]
concentration in plasma [ng/mL]
Conditions | rat [6] | rat [7] | rat [8] | rat [9]
0.167 h | – | 374 | 337 | –
0.25 h | 1780 | – | – | 1220
0.5 h | 330 | 1340 | 349 | 1070
1 h | 1040 | 413 | 440 | 1060
2 h | 786 | 286 | 294 | 948
4 h | 745 | 188 | 155 | 784
5 min | – | 247 | 214 | –
8 h | 316 | 60.9 | 59.5 | 292
24 h | 5.04 | 0.552 | 0.498 | 4.31
48 h | 0.193 | 0.0484 | – | 0.116
72 h | 3.73 | – | 0.247 | 1.21

rat [1], dosed: Diazinon-o-analog, Sprague-Dawley
Conditions | concentration in plasma [ng/mL]
0.167 h, 1.02 mg/kg, iv | 596
0.25 h, 5.02 mg/kg, oral | 916
0.5 h, 1.02 mg/kg, iv | 597
0.5 h, 5.02 mg/kg, oral | 846
1 h, 1.02 mg/kg, iv | 356
1 h, 5.02 mg/kg, oral | 1180
2 h, 1.02 mg/kg, iv | 271
2 h, 5.02 mg/kg, oral | 1140
4 h, 1.02 mg/kg, iv | 174
4 h, 5.02 mg/kg, oral | 715
5 min, 1.02 mg/kg, iv | 564
8 h, 1.02 mg/kg, iv | 57.9
8 h, 5.02 mg/kg, oral | 298
24 h, 1.02 mg/kg, iv | 1.14
24 h, 5.02 mg/kg, oral | 2.63
48 h, 5.02 mg/kg, oral | 1.84
72 h, 1.02 mg/kg, iv | 0.481
72 h, 5.02 mg/kg, oral | 0.239

COc1ccc([C@@H]2Sc3ccccc3N(CCN(C)C)C(=O)[C@@H]2OC(C)=O)cc1 [Diltiazem]
concentration in plasma [ng/mL], rat [1], dosed: Diltiazem, 20.0000000000 mg/kg, Sprague-Dawley
Conditions | 0.16 h | 0.25 h | 1 h | 1.5 h | 2 h | 3 h | 4 h | 6 h | 8 h | 10 h
iv | 7870 | 5050 | 2530 | 1510 | 956 | 636 | 202 | 69.3 | 78 | 22.5
oral | 1220 | 488 | 248 | 189 | 271 | 160 | 52.8 | 19.4 | – | –

CC(C)N(C(=O)COc1nnc(C(F)(F)F)s1)c1ccc(F)cc1 [Flufenacet]
concentration in plasma [ng/mL]
Conditions | rat [10] | rat [11] | rat [12] | rat [13]
0.167 h | 80.7 | – | 52.4 | –
0.25 h | – | 2.17 | – | 0.708
0.5 h | 13.7 | 1.32 | 8.65 | 0.41
1 h | 1.82 | 0.462 | 4.31 | 0.274
2 h | 0.896 | 0.22 | 3.42 | 0.256
4 h | 0.328 | 0.135 | 2.88 | 0.199
5 min | 195 | – | 128 | –
8 h | 0.0709 | 0.116 | 0.0986 | 0.15
24 h | 0.0595 | 0.0179 | 0.044 | 0.0249
48 h | 0.0264 | 0.0128 | 0.026 | 0.017
72 h | 0.0353 | 0.0208 | 0.0121 | 0.0224

rat [1], dosed: Flufenacet, Sprague-Dawley
Conditions | concentration in plasma [ng/mL]
0.167 h, 1.0 mg/kg, iv | 20.4
0.25 h, 5.2 mg/kg, oral | 0.81
0.5 h, 1.0 mg/kg, iv | 4.05
0.5 h, 5.2 mg/kg, oral | 0.401
1 h, 1.0 mg/kg, iv | 3.72
1 h, 5.2 mg/kg, oral | 0.451
2 h, 1.0 mg/kg, iv | 1.81
2 h, 5.2 mg/kg, oral | 0.188
4 h, 1.0 mg/kg, iv | 2.03
4 h, 5.2 mg/kg, oral | 0.146
5 min, 1.0 mg/kg, iv | 48.6
8 h, 1.0 mg/kg, iv | 2.1
8 h, 5.2 mg/kg, oral | 0.0824
24 h, 1.0 mg/kg, iv | 0.0352
24 h, 5.2 mg/kg, oral | 0.0158
48 h, 1.0 mg/kg, iv | 0.0229
48 h, 5.2 mg/kg, oral | 0.0322
72 h, 1.0 mg/kg, iv | 0.0508
72 h, 5.2 mg/kg, oral | 0.0214

CNC(=O)Oc1cccc(N=CN(C)C)c1.Cl [Formetanate hydrochloride]
concentration in plasma [ng/mL], rat [1], dosed: Formetanate hydrochloride, Sprague-Dawley
Conditions | 0.25 h | 1 h | 2 h | 24 h | 48 h | 72 h
1.0000000000 mg/kg, iv | – | – | – | 7.9 | 2.2 | –
5.0000000000 mg/kg, oral | 262 | 53.2 | 9.57 | 1.64 | 12.4 | 5.13

CN(C)CCCN1c2ccccc2CCc2ccccc21 [Imipramine]
rat [14]
Conditions | concentration in brain [µg/g]
1 h | 8.5
2 h | 3.6
4 h | 1.61
5 min | 14.7
10 min | 15.1

concentration in plasma [ng/mL], rat [1], dosed: Imipramine
Conditions | 0.1287 h | 0.25 h | 0.5 h | 1 h | 2 h | 4 h | 8 h | 16 h | 24 h | 208 s
10.0000000000 mg/kg, iv, Wistar | 1620 | – | 853 | 719 | 238 | 46.3 | – | – | – | 2340
50.0000000000 mg/kg, oral, Sprague-Dawley | – | 99.1 | 75.7 | 120 | 73.9 | 58.7 | 38.6 | 33.5 | 28.3 | –
